# Reference: publication doi:10.1101/2024.08.25.609621 (bioRxiv, 2024)
# Several values for one entry are separate records, joined by “and”; a condition that tells them apart may be missing. Identical values can stand only once. Like-named read-outs stand apart in the source and are kept apart here.
# What was measured:
# [1] = molecular target: SARS-CoV-2 NSP3 macrodomain (Mac1) (Severe acute respiratory syndrome coronavirus 2, UniProt P0DTD1); assay: biochemical; format: binding; details: for SARS CoV-2 macrodomain HTRF assay: Hillslope: dose-response fit
# [2] = molecular target: SARS-CoV-2 NSP3 macrodomain (Mac1), P43 crystal form (Severe acute respiratory syndrome coronavirus 2, UniProt P0DTD1); format: binding; details: for 1-BDC: PanDDA background density correction; for Total number of conformations: ligand conformations modeled in Mac1 crystal structure; for X-ray crystallography: Binding site: site where the ligand is bound in the X-ray crystal structure
# [3] = Dose-response, SARS CoV-2 macrodomain HTRF assay
# [4] = Single dose, 200 μM, mean of three technical replicates, read-out: Average % competition
# [5] = preliminary screen, compound at 200 μM, mean of 3-4 technical replicates, read-out: % competition in HTRF assay
# [6] = TRUE = crystal structure with ligand determined
# [7] = crystal soak concentration 10 mM, event 1
# [8] = crystal soak concentration 10 mM, P43 crystals
# [9] = crystal soak concentration 10 mM
# [10] = occupancy estimate from PanDDA 1-BDC
# [11] = site of Mac1 where ligand bound in crystal structure
# [12] = Single dose, 200 μM, mean of three technical replicates
# [13] = crystal soak concentration 3 mM, P43 crystals
# [14] = crystal soak concentration 3 mM
# [15] = crystal soak concentration 20 mM
# [16] = crystal soak concentration 20 mM, P43 crystals
# [17] = Single dose, concentration 200 μM, read-out: SARS CoV-2 macrodomain HTRF assay: Average % competition
# [18] = crystal soak, soak concentration 10 mM
# [19] = crystal soak, soak concentration 10 mM, TRUE = ligand hit
# [20] = SARS CoV-2 macrodomain HTRF assay, dose-response, read-out: IC50
# [21] = X-ray crystal structure determined (TRUE)
# [22] = site of ligand in X-ray crystal structure
# [23] = SARS CoV-2 macrodomain HTRF assay, dose-response
# [24] = Single dose, concentration 200 μM, read-out: Average % competition
# [25] = crystal soak 10 mM, P43 crystals
# [26] = preliminary screen, compound at 200 μM, mean of 3-4 technical replicates
Structure (SMILES),"Hill slope ([1]; HTRF dose-response fit, Mac1)","inhibition at 200 µM [1, 5] [%]",1-BDC [2],Total number of conformations [2],"2*(1-BDC) (%) [2, 10] [%]","X-ray crystal structure [2, 21]","Binding site [2, 22]","Pandda run, overall: Hit [2, 25]","Pandda run, overall: Modeled [2, 25]","PanDDA run, DMSO background map: 1-BDC ([2]; crystal soak 10 mM)","PanDDA run, DMSO background map: Hit ([2]; crystal soak 10 mM)",other results
CC(CNC(=O)c1ccc2c(c1)CCC(=O)N2)C(=O)O (stereo not drawn) [AVI-328],1.3,50,0.11,2,22,–,–,–,–,–,–,"Hill slope [1, 3]: 1.3; inhibition at 200 µM [1, 4]: 50%; PanDDA run, DMSO background map: 1-BDC ([2]; event 1): 0.25; X-ray crystal structure [2, 6]: TRUE; PanDDA run, DMSO background map: 1-BDC [2, 7]: 0.11 and 0.1; Pandda run, overall: Hit [2, 8]: TRUE; Pandda run, overall: Modeled [2, 8]: TRUE; Pandda run, overall: Modeling comment [2, 8]: Duplicate, not modeled; PanDDA run, DMSO background map: Hit [2, 9]: TRUE; PanDDA run, DMSO background map: Modeled [2, 9]: TRUE; Binding site [2, 11]: Adenosine"
Cc1ccc2c(c1)CC[C@@H](C(=O)Nc1nnc3n1CCCC3)O2 [AVI-329],–,–,0.07,1,14,–,–,–,–,–,–,"Average % competition [1, 12]: 9%; PanDDA run, DMSO background map: 1-BDC ([2]; event 1): 0.17; X-ray crystal structure [2, 6]: TRUE; Pandda run, overall: Hit [2, 13]: TRUE; Pandda run, overall: Modeled [2, 13]: TRUE; Pandda run, overall: Modeling comment [2, 13]: Duplicate, not modeled; PanDDA run, DMSO background map: Hit [2, 14]: TRUE; PanDDA run, DMSO background map: Modeled [2, 14]: TRUE; PanDDA run, DMSO background map: 1-BDC ([2]; crystal soak concentration 3 mM, event 1): 0.08 and 0.07; Binding site [2, 11]: Distal"
CC1CC(C(=O)O)CN(C(=O)CSc2ccc(O)cc2)C1 (stereo not drawn) [AVI-334],–,–,–,–,–,–,–,–,–,–,–,"Average % competition [1, 12]: 25%; PanDDA run, DMSO background map: 1-BDC ([2]; event 1): 0.12; PanDDA run, DMSO background map: 1-BDC [2, 7]: 0.07; Pandda run, overall: Hit [2, 8]: TRUE; Pandda run, overall: Modeling comment [2, 8]: Weak density, not modeled; PanDDA run, DMSO background map: Hit [2, 9]: TRUE"
O=C1CCc2cc(C(=O)N3CC(C(=O)O)CCC34CCCC4)c(F)cc2N1 (stereo not drawn) [AVI-338],1.5,23,0.07,1,–,–,–,–,–,–,–,"Hill slope [1, 3]: 1.5; inhibition at 200 µM [1, 4]: 23%; Occupancy difference (refined_occupancy - 2*(1-BDC)) [2]: 0; Refined ligand occupancy (%) [2]: 14%; X-ray crystal structure [2, 6]: TRUE; PanDDA run, DMSO background map: Hit [2, 15]: TRUE; PanDDA run, DMSO background map: Modeled [2, 15]: TRUE; PanDDA run, DMSO background map: 1-BDC ([2]; crystal soak concentration 20 mM, event 1): 0.07; Pandda run, overall: Hit [2, 16]: TRUE; Pandda run, overall: Modeled [2, 16]: TRUE; 2*(1-BDC) (%) ([2]; occupancy estimate from PanDDA BDC): 14%; Binding site [2, 11]: Adenosine"
OC[C@@H]1C[C@H](O)CN1c1ncnc2[nH]ccc12 [AVI-610],1.2,56,0.21,1,42,–,–,–,–,–,–,"inhibition at 200 µM [1, 17]: 56%; SARS CoV-2 macrodomain HTRF assay: Hillslope [1]: 1.2; Pandda run, overall: Modeled [2, 18]: TRUE; Pandda run, overall: Hit [2, 19]: TRUE; X-ray crystallography: Binding site [2]: Adenosine; PanDDA run, DMSO background map: 1-BDC ([2]; soak concentration 10 mM): 0.34 and 0.31 and 0.21 and 0.26; PanDDA run, DMSO background map: Hit ([2]; soak concentration 10 mM): TRUE"
O[C@@H]1COC[C@H]1Nc1ncnc2[nH]ccc12 [AVI-1443],–,–,–,–,–,–,–,–,–,–,–,"IC50 [1, 20]: > 1000 µM; Pandda run, overall: Modeling comment ([2]; crystal soak, soak concentration 5 mM): Weak density, not modeled; Pandda run, overall: Hit ([2]; crystal soak, soak concentration 5 mM, TRUE = ligand hit): TRUE; PanDDA run, DMSO background map: 1-BDC ([2]; soak concentration 5 mM): 0.05 and 0.04; PanDDA run, DMSO background map: Hit ([2]; soak concentration 5 mM): TRUE"
"O[C@H]1COC[C@@H]1Nc1ncnc2[nH]ccc12 [AVI-1444, (3R,4S)-4-((7H-pyrrolo[2,3-d]pyrimidin-4-yl)amino)tetrahydrofuran-3-ol]",–,–,0.08,1,16,TRUE,Adenosine,–,–,–,–,"IC50 [1, 20]: > 1000 µM; Pandda run, overall: Modeled [2, 18]: TRUE; Pandda run, overall: Hit [2, 19]: TRUE; PanDDA run, DMSO background map: 1-BDC ([2]; soak concentration 10 mM): 0.08 and 0.11; PanDDA run, DMSO background map: Hit ([2]; soak concentration 10 mM): TRUE"
OCC(Nc1ncnc2[nH]ccc12)C1CC1 (stereo not drawn) [AVI-3651],1.2,85,0.18,1,36,TRUE,Adenosine,TRUE,TRUE,0.18,TRUE,"Hill slope [1, 23]: 1.2; inhibition at 200 µM [1, 24]: 85%"
O[C@H]1CC[C@@H]2CCN(c3ncnc4[nH]ccc34)[C@@H]21 [AVI-3664],1.2,93,0.16,1,32,–,–,TRUE,TRUE,0.16,TRUE,"inhibition at 200 µM [1, 17]: 93%; SARS CoV-2 macrodomain HTRF assay: Hillslope [1]: 1.2; X-ray crystallography: Binding site [2]: Adenosine"
CCC(O)[C@H]1CCCN1c1ncnc2[nH]ccc12 (stereo partly drawn) [AVI-3666],1.3,87,0.3,1,60,–,–,TRUE,TRUE,0.3,TRUE,"inhibition at 200 µM [1, 17]: 87%; IC50 ([1]; confirmatory dose-response, best fit value of 3-4 technical replicates, Fig. S3 prints the 95% confidence interval in brackets, read-out: HTRF IC50): 46 µM; SARS CoV-2 macrodomain HTRF assay: Hillslope [1]: 1.3; Ki ([1]; dose-response, read-out: SARS CoV-2 macrodomain HTRF assay: Ki): 43 µM; X-ray crystallography: Binding site [2]: Adenosine"
O=C(O)C(F)(F)F.OCC1(Nc2ncnc3[nH]ccc23)CCC1 [AVI-3670],1.2,87,0.18,2,36,TRUE,Adenosine,TRUE,TRUE,0.18,TRUE,"Hill slope [1, 23]: 1.2; inhibition at 200 µM [1, 24]: 87%"
CN(C)CC(CO)Nc1ncnc2[nH]ccc12 (stereo not drawn) [AVI-3671],–,–,0.17,1,34,TRUE,Adenosine,TRUE,TRUE,0.17,TRUE,"% competition in HTRF assay [1, 26]: neither had detectable binding"
OCC(CN1CCCCC1)Nc1ncnc2[nH]ccc12 (stereo not drawn) [AVI-3677],–,–,0.21,1,42,TRUE,Adenosine,TRUE,TRUE,0.21,TRUE,"% competition in HTRF assay [1, 26]: neither had detectable binding"
